System: mouse vas deferens (MVD) preparations
Assay: Agonist potency in mouse vas deferens (MVD)
Format: biochemical
Details: arithmetic means of at least three experiments, read-out: IC50 (nM) ± SEM, MVD (Agonist Potencies of Parent Compounds)

CN(C(=O)Cc1ccc(Cl)c(Cl)c1)C(CN1CCCC1)c1ccc([N+](=O)[O-])cc1 (racemic) [Compound 23, 2-(3,4-Dichlorophenyl)-N-methyl-N-[(1R,S)-1-(4-nitrophenyl)-2-(1-pyrrolidinyl)ethyl]acetamide]
IC50: 197 ± 61 nM
